# Assay results reported in article PMC5716981, “Inhibition of A2A Adenosine Receptor Signaling in Cancer Cells Proliferation by the Novel Antagonist TP455” (Frontiers in Pharmacology, 2017).
# Counter-ions that a name gives are not always drawn.
# Key:
# A549 cells = assay: DELFIA cell proliferation (BrdU) in A549 cells; assay type: cell-based, human; conditions: for effect on cell proliferation: 100 nM; for antagonism of CGS21680-induced cell proliferation / inhibition of CGS21680-induced cell proliferation by signalling inhibitor: 100 nM CGS21680, 24 h; for inhibition of CGS21680-induced cell proliferation by signalling inhibitor: 10 μM inhibitor 30 min pretreatment
# Description: (§1) Tumoral cell lines A375 (human skin malignant melanoma), A549 (adenocarcinomic human alveolar basal epithelial cells) and rat cell line MRMT-1 (rat breast carcinoma cells) were purchased from ATCC and were grown adherently at 37°C in 5% CO2/95% air. A375 and A549 were maintained in DMEM high glucose medium containing 10% fetal calf serum, penicillin (100 U/mL) and streptomycin ([…]) and MRMT-1 were grown in RPMI 1640 medium containing 10% fetal calf serum, penicillin (100 U/mL), streptomycin ([…]), and L-glutamine (2 mM). Adenosine receptor agonists and antagonists and inhibitors of kinases, were made up in dimethyl sulfoxide solution (DMSO) and then diluted in cell culture medium (0.1 max 0.2% of DMSO). An equal amount of DMSO was used in control cells (CTR).
# (§2) The DELFIA assay was performed to determine cell proliferation according to the manufacturer’s protocol from PerkinElmer (Milan, Italy). The assay is a time-resolved fluoroimmunoassay based on the incorporation of BrdU into newly synthesized DNA strands of proliferating cells cultured in microliter plates. Incorporated BrdU is detected using a europium labeled monoclonal antibody and the fluorescence measured is proportional to the DNA synthesis in the cell population of each well. A375, A549, and MRMT-1 cells were cultured over night at 1000 cells/well in a 96-well plate (at a final volume of 100 μl per well), agonists and antagonists were added and the cells were incubated for 30′ before addition of the BrdU-Labeling solution 10 μl/well. The cells were then cultured for 24, 48, or 72 h. At the end of the incubation period, cells were fixed (fix solution 100 μl/well), added with 100 μl/well of Anti-BrdU-Eu (0.5 μg/ml) and incubated for 120 min at room temperature. After four washes, 200 μl of DELFIA Inducer were added at room temperature for 15 min and the Eu-fluorescence was detected through an Ensight Perkin Elmer-multimode plate reader (Perkin Elmer, Milan, Italy). Two kinds of controls were performed: the blank where no cells were added to the well but only culture medium and the background where no BrdU was added to the wells.
# MRMT-1 cells = assay: DELFIA cell proliferation (BrdU) in MRMT-1 cells; assay type: cell-based, rat; conditions: for effect on cell proliferation when tested alone: 48 h; for antagonism of CGS21680-induced cell proliferation / inhibition of CGS21680-induced cell proliferation by signalling inhibitor: 100 nM CGS21680, 48 h; for inhibition of CGS21680-induced cell proliferation by signalling inhibitor: 10 μM inhibitor 30 min pretreatment
# Description: as §1, §2
# A375 cells = assay: DELFIA cell proliferation (BrdU) in A375 cells; assay type: cell-based, human; conditions: for effect on cell proliferation when tested alone: 48 h; for antagonism of CGS21680-induced cell proliferation / inhibition of CGS21680-induced cell proliferation by signalling inhibitor: 100 nM CGS21680, 48 h; for inhibition of CGS21680-induced cell proliferation by signalling inhibitor: 10 μM inhibitor 30 min pretreatment
# Description: as §1, §2
# pERK1/2 = assay: AlphaScreen SureFire pERK1/2 assay in MRMT-1, A375 and A549 cells; assay type: cell-based, human and rat; conditions: for antagonism of CGS21680-induced ERK1/2 phosphorylation: 100 nM CGS21680 5 min; for inhibition of CGS21680-mediated ERK1/2 phosphorylation: 10 μM inhibitor, 100 nM CGS 21680, MRMT-1, A375 and A549 cells
# Description: (§3) AlphaScreen SureFire phospho(p)ERK1/2(Thr202/Tyr204), pJNK1/3(pThr183/Tyr185), and p-AKT1/2/3 (pThr308) assay kits (Perkin Elmer, Milan, Italy) were utilized. Upon kinase phosphorylation and excitation at 680 nm, fluorescent signals at 615 nm are emitted. Cells were seeded in 100 μl culture medium into 96-well plates (30,000/well), and incubated at 37°C for 24 h. Cells were pretreated with various inhibitors and TP455 for 30 min. Then, receptors were maximally stimulated using 100 nM CGS 21680 and incubated for 5 min (ERK1/2, JNK1/2-MAPK) or 30 min (AKT) at 37°C. After agonist removal, lysis buffer was added, then donor and acceptor beads linked to specific anti-p-kinase- and anti-kinase-antibodies were dispensed, according to manufacturer instructions. Finally, fluorescent signals were detected through an Ensight Perkin Elmer-multimode plate reader (Perkin Elmer, Milan, Italy). Data were normalized to fold activation above basal p-kinase levels (=100). For inhibitor graphs, raw data were transformed into percentages relative to controls (basal level = 100%) in order to merge data from several experiments.
# pJNK1/2 = assay: AlphaScreen SureFire pJNK1/2 assay in MRMT-1, A375 and A549 cells; assay type: cell-based, human and rat; conditions: for antagonism of CGS21680-induced JNK1/2 phosphorylation: 100 nM CGS21680 5 min; for inhibition of CGS21680-mediated JNK1/2 phosphorylation: 10 μM inhibitor, 100 nM CGS 21680, MRMT-1, A375 and A549 cells
# Description: as §3
# pAKT = assay: AlphaScreen SureFire pAKT assay in MRMT-1, A375 and A549 cells; assay type: cell-based, human and rat; conditions: for antagonism of CGS21680-induced AKT phosphorylation: 100 nM CGS21680 10 min; for inhibition of CGS21680-mediated AKT phosphorylation: 10 μM inhibitor, 100 nM CGS 21680, MRMT-1, A375 and A549 cells
# Description: as §3, with “Then, receptors were maximally stimulated using 100 nM CGS 21680 and incubated for 5 min (ERK1/2, JNK1/2-MAPK) or 30 min (AKT) at 37°C.” left out
# A2AARs [1] = target: A2AARs (Rattus norvegicus, UniProt P30543); assay: biochemical
# Description: (§4) For membrane preparation the culture medium was removed. […] The cell suspension was homogenized with Polytron and the homogenate was spun for 10 min at 1000 g. The supernatant was then centrifuged for 30 min at 100,000g. The membrane pellet was resuspended in 50 mM Tris HCl buffer pH 7.4, 10 mM MgCl2. […] Then the suspension was frozen at -80°C.
# (§5) At the end of the incubation, bound and free radioactivity were separated by filtering, in a Brandel cell harvester, the assay mixture through Whatman GF/B glass-fiber filters. The filter bound radioactivity was counted in a liquid Scintillation Counter Tri Carb Packard 2500 TR (Perkin-Elmer Life and Analytical Sciences, Boston, MA, United States).
# (§6) LIGAND was also used to determine inhibitory binding constant (Ki) values from the competition binding experiments. All values in the figures and text are expressed as mean ± standard error (SE) of three independent experiments.
# A2AARs [2] = target: T1, A2AARs (Homo sapiens, UniProt P29274); assay: [3H]ZM241385 competition binding in A375 melanoma membranes
# Description: as §4, §5, §6
# A2AARs [3] = target: T1, A2AARs; assay: [3H]ZM241385 competition binding in A549 lung carcinoma membranes
# Description: as §4, §5, §6
# [4] = 100 nM, 0-60 min, MRMT-1, A375 and A549 cells
# [5] = 10 nM antagonist 30 min pretreatment, MRMT-1, A375 and A549 cells
# [6] = 100 nM antagonist 30 min pretreatment
# [7] = 100 nM antagonist 30 min pretreatment, MRMT-1, A375 and A549 cells
# Sequence of A2AARs (Rattus norvegicus, UniProt P30543) (P30543 whole entry): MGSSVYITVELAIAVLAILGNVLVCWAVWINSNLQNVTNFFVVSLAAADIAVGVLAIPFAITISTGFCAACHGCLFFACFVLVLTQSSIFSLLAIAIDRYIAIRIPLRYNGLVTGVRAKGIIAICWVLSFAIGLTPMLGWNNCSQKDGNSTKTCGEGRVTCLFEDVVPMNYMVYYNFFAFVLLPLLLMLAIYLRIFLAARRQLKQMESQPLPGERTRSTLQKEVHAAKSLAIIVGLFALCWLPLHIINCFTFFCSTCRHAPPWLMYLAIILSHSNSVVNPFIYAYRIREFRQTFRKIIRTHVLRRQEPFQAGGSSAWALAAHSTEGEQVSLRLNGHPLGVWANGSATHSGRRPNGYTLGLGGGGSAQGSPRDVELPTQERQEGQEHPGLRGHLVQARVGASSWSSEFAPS
# T1 sequence (P29274 whole entry): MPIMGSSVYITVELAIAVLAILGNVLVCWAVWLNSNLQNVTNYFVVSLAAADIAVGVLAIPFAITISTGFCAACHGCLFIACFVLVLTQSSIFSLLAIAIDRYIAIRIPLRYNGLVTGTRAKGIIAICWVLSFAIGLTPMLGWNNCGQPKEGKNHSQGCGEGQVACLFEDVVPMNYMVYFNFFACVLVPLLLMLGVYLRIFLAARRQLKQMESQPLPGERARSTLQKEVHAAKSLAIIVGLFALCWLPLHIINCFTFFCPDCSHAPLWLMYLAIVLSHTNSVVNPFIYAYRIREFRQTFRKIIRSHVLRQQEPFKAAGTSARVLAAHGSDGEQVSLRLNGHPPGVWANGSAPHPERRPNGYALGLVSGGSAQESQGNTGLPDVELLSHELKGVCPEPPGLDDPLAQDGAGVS
smiles,measurement,setting,value
"CCNC(=O)[C@H]1O[C@@H](n2cnc3c(N)nc(NCCc4ccc(CCC(=O)O)cc4)nc32)[C@H](O)[C@@H]1O [CGS21680, 2-p-(2-Carboxyethyl)phenethylamino-5′-N-ethylcarboxamido-adenosine hydrochloride hydrate]",effect on cell proliferation,A549 cells; 48 and 72 h,not more present
same,effect on cell proliferation,A549 cells; 24 h,slightly increased cell proliferation
same,effect on cell proliferation,"MRMT-1 cells; 10 nM, 48 and 72 h",raised cell vitality
same,effect on cell proliferation,"MRMT-1 cells; 100 nM, 24, 48 and 72 h",significant stimulation
same,effect on cell proliferation,"A375 cells; 100 nM, only at 48 h",stimulatory effect of cell proliferation
same,ERK1/2 phosphorylation time course,pERK1/2; [4],reached a maximal effect after 5 min
same,JNK1/2 phosphorylation time course,pJNK1/2; [4],reached a maximal effect after 5 min
same,AKT phosphorylation time course,pAKT; [4],started to increase after 10 min
Nc1nc2c(cnn2CCc2ccccc2)c2nc(-c3ccco3)nn12 [SCH58261],Ki,A2AARs [1],3260 pM
"COc1ccccc1CNc1nc(N)c2nc(-c3ccco3)sc2n1 [TP455, 2-(2-furanyl)-N^5-(2-methoxybenzyl)[1,3]thiazolo[5,4-d]pyrimidine-5,7-diammine]",effect on cell proliferation when tested alone,"A549 cells; 10 nM alone, 24 h",did not alter cell proliferation
same,antagonism of CGS21680-induced cell proliferation,A549 cells; 10 nM antagonist,antagonized
same,effect on cell proliferation when tested alone,MRMT-1 cells; 10 nM alone,did not alter cell proliferation
same,antagonism of CGS21680-induced cell proliferation,MRMT-1 cells; 10 nM antagonist,antagonized
same,effect on cell proliferation when tested alone,A375 cells; 10 nM alone,did not alter cell proliferation
same,antagonism of CGS21680-induced cell proliferation,A375 cells; 10 nM antagonist,antagonized
same,antagonism of CGS21680-induced ERK1/2 phosphorylation,pERK1/2; [5],potently inhibited
same,antagonism of CGS21680-induced JNK1/2 phosphorylation,pJNK1/2; [5],potently inhibited
same,antagonism of CGS21680-induced AKT phosphorylation,pAKT; [5],potently inhibited
same,Ki,A2AARs [1],6.1 pM
same,Ki,A2AARs [2],5.8 pM
same,Ki,A2AARs [3],5.3 pM
"Oc1c2ccccc2c2c3c(cccc13)N=N2 [SP600125, 1,9-Pyrazoloanthrone]",inhibition of CGS21680-induced cell proliferation by signalling inhibitor,A549 cells,strongly reduced
same,inhibition of CGS21680-induced cell proliferation by signalling inhibitor,MRMT-1 cells,strongly reduced
same,inhibition of CGS21680-induced cell proliferation by signalling inhibitor,A375 cells,strongly reduced
"CC(=O)c1c(O)c(C)c(O)c(Cc2c(O)c3c(c(C(=O)C=Cc4ccccc4)c2O)OC(C)(C)C=C3)c1O [rottlerin, 1-[6-[(3-Acetyl-2,4,6-trihydroxy-5-methylphenyl)methyl]-5,7-dihydroxy-2,2-dimethyl-2H-1-benzopyran-8-yl]-3-phenyl-2-propen-1-one]",inhibition of CGS21680-induced cell proliferation by signalling inhibitor,A549 cells,able to antagonize the stimulatory effect
same,inhibition of CGS21680-induced cell proliferation by signalling inhibitor,MRMT-1 cells,able to antagonize the stimulatory effect
same,inhibition of CGS21680-induced cell proliferation by signalling inhibitor,A375 cells,able to antagonize the stimulatory effect
same,inhibition of CGS21680-mediated ERK1/2 phosphorylation,pERK1/2,strongly reduced
same,inhibition of CGS21680-mediated JNK1/2 phosphorylation,pJNK1/2,strongly reduced
same,inhibition of CGS21680-mediated AKT phosphorylation,pAKT,strongly reduced
"Oc1ccc(-c2nc(-c3ccc(F)cc3)c(-c3ccncc3)[nH]2)cc1 [SB202190, 4-(4-Fluorophenyl)-2-(4-hydroxyphenyl)-5-(4-pyridyl)-1H-imidazole]",inhibition of CGS21680-induced cell proliferation by signalling inhibitor,A549 cells,did not
same,inhibition of CGS21680-induced cell proliferation by signalling inhibitor,MRMT-1 cells,did not
same,inhibition of CGS21680-induced cell proliferation by signalling inhibitor,A375 cells,did not
"Nc1ncnc2c1ncn2C1CCCO1 (stereo not shown) [SQ22,536]",inhibition of CGS21680-induced cell proliferation by signalling inhibitor,A549 cells,did not block the agonist effect
same,inhibition of CGS21680-induced cell proliferation by signalling inhibitor,MRMT-1 cells,did not block the agonist effect
same,inhibition of CGS21680-induced cell proliferation by signalling inhibitor,A375 cells,did not block the agonist effect
N#CC(=C(/N)Sc1ccccc1N)/C(C#N)=C(/N)Sc1ccccc1N [U0126],inhibition of CGS21680-induced cell proliferation by signalling inhibitor,A549 cells,strongly reduced
same,inhibition of CGS21680-induced cell proliferation by signalling inhibitor,MRMT-1 cells,strongly reduced
same,inhibition of CGS21680-induced cell proliferation by signalling inhibitor,A375 cells,strongly reduced
"CCCCCCCCCCCCCCCCCCOC[C@H](COP(=O)(O)O[C@H]1[C@H](O)[C@@H](O)[C@H](O)C[C@H]1OC)OC [SH5, D-3-Deoxy-2-O-methyl-myo-inositol 1-[(R)-2-methoxy-3-(octadecyloxy)propyl hydrogen phosphate]]",inhibition of CGS21680-induced cell proliferation by signalling inhibitor,A549 cells,strongly reduced
same,inhibition of CGS21680-induced cell proliferation by signalling inhibitor,MRMT-1 cells,strongly reduced
same,inhibition of CGS21680-induced cell proliferation by signalling inhibitor,A375 cells,strongly reduced
"COc1ccc2c(c1)CC[C@@H]1[C@@H]2CC[C@]2(C)[C@@H](NCCCCCCN3C(=O)C=CC3=O)CC[C@@H]12 [U73122, 1-[6-[[(17β)-3-Methoxyestra-1,3,5(10)-trien-17-yl]amino]hexyl]-1H-pyrrole-2,5-dione]",inhibition of CGS21680-induced cell proliferation by signalling inhibitor,A549 cells,able to antagonize the stimulatory effect
same,inhibition of CGS21680-induced cell proliferation by signalling inhibitor,MRMT-1 cells,able to antagonize the stimulatory effect
same,inhibition of CGS21680-induced cell proliferation by signalling inhibitor,A375 cells,able to antagonize the stimulatory effect
same,inhibition of CGS21680-mediated ERK1/2 phosphorylation,pERK1/2,strongly reduced
same,inhibition of CGS21680-mediated JNK1/2 phosphorylation,pJNK1/2,strongly reduced
same,inhibition of CGS21680-mediated AKT phosphorylation,pAKT,strongly reduced
"Nc1nc(NCCc2ccc(O)cc2)nc2nc(-c3ccco3)nn12 [ZM241385, 4-(2-[7-Amino-2-(2-furyl) [1,2,4]triazolo[2,3-a][1,3,5]triazin-5-ylamino]ethyl)phenol]",effect on cell proliferation when tested alone,"A549 cells; 100 nM alone, 24 h",did not alter cell proliferation
same,antagonism of CGS21680-induced cell proliferation,A549 cells; [6],completely block the agonist effect
same,effect on cell proliferation when tested alone,MRMT-1 cells; 100 nM alone,did not alter cell proliferation
same,antagonism of CGS21680-induced cell proliferation,MRMT-1 cells; [6],completely block the agonist effect
same,effect on cell proliferation when tested alone,A375 cells; 100 nM alone,did not alter cell proliferation
same,antagonism of CGS21680-induced cell proliferation,A375 cells; [6],completely block the agonist effect
same,antagonism of CGS21680-induced ERK1/2 phosphorylation,pERK1/2; [7],completely reverted
same,antagonism of CGS21680-induced JNK1/2 phosphorylation,pJNK1/2; [7],completely reverted
same,antagonism of CGS21680-induced AKT phosphorylation,pAKT; [7],completely reverted
Nc1nc2ccc(Cl)cc2c2nc(-c3ccco3)nn12 [CGS15943],Ki,A2AARs [1],2150 pM
